The values below come from paper PMC9144829, “Histone Deacetylase Inhibitory Activity and Antiproliferative Potential of New [6]-Shogaol Derivatives” (Molecules, 2022).

As a reminder, the IC50 is the concentration needed to halve the response being measured.

For one assay, the target named is histone deacetylase. Particulars: Figure 1; read-out: IC50 (known histone deacetylase inhibitors); cited from earlier work.
Assay [1] has as its system HDAC enzymes (HeLa nuclear extract, mixed-HDAC isoforms). Kind of assay: Fluor-de-Lys HDAC activity assay kit, HeLa nuclear extract as source of HDAC enzymes. The format is biochemical, human. Particulars: compounds at 100 µM. The procedure:
The in vitro HDAC inhibitions of the obtained compounds were carried out with the assay kit containing mixed-HDAC isoforms. […] Therefore, the results were not fully related. However, compounds with good binding affinities should have the potential to be specific HDAC inhibitors for each isoform.
The semi-synthetic derivatives were evaluated for their ability to inhibit HDAC enzymes. Inhibition of HDAC activity in vitro was assessed using the Fluor-de-Lys HDAC activity assay kit (Biomol, Enzo Life Sciences International, Inc., Farmingdale, NY, USA). The HeLa nuclear extract provided with the kit was used as a source of HDAC enzymes for the in vitro study. TSA was used as the positive control. The HeLa nuclear extract, substrate, buffer and inhibitors were incubated. Deacetylation of the substrate was performed next by adding a developer to generate a fluorophore. The spectra Max Gemini XPS microplate spectrofluorometer (Molecular Devices, San Jose, CA, USA) was used to measure fluorescence signal with excitation at 360 nm and emission at 460 nm. A decrease in fluorescence signal indicated an inhibition of HDAC activity. Trichostatin A (TSA) was used as a positive control. All experiments were carried out in triplicate.

For the next assay, the system named is Vero cells. The assay is described as follows: MTT assay, non-cancer Vero cells. It is filed as cell-based. Particulars: Chlorocebus sabaeus, read-out: IC50 Values (Mean ± SD; n = 3). As for the experimental part:
(§1) The MTT reduction assay was performed with non-cancer (Vero), human cervical cancer (HeLa), human colon cancer (HCT116), human breast adenocarcinoma cancer (MCF-7), and cholangiocarcinoma (H-69 […], KKU-100 and KKU-M213B) cell lines according to the previously described method. Briefly, cells were seeded in 96-well plates. The next day, cells were exposed to the selected compounds at various concentrations and incubated for 24, 48 and 72 h. After incubation, the culture medium was exchanged with 110 µL of MTT (0.5 mg/mL in PBS medium) and further incubated for 2 h. The amount of MTT formazan product was determined after dissolving in DMSO by measuring its absorbance with a microplate reader (Bio-Rad Laboratories, Hercules, CA, USA) at a test wavelength of 550 nm and a reference wavelength of 655 nm. The cell viability was expressed as a percentage of the viable cells of control culture conditions, and the IC50 values of each group were calculated.
(In general: Tetrazolium assays rely on reduction of a dye to a coloured formazan, in cell work by metabolically active cells.)

The subject of assay [2] is human cervical cancer (HeLa) cells. Kind of assay: MTT assay, HeLa cells. It is filed as cell-based. Particulars: for IC50: Homo sapiens, read-out: IC50 Values (Mean ± SD; n = 3), HeLa cells; for selectivity towards HeLa cells than non-cancer cells: HeLa versus non-cancer cells. As for the experimental part:
as §1

Assay [3] has as its system human colon cancer (HCT116) cells. Kind of assay: MTT assay, HCT116 cells. The format is cell-based. Particulars: Homo sapiens, HCT-116, read-out: IC50 Values (Mean ± SD; n = 3). The procedure:
as §1

Assay [4] concerns human breast adenocarcinoma cancer (MCF-7) cells. Kind of assay: MTT assay, MCF-7 cells. It is filed as cell-based. Particulars: Homo sapiens, MCF7, read-out: IC50 Values (Mean ± SD; n = 3). The procedure:
as §1

Another assay deals with H-69 cells. The assay is described as follows: MTT assay, H-69 cells. Particulars: Homo sapiens, NCI-H69, read-out: IC50 Values (Mean ± SD; n = 3). The format is cell-based. The procedure:
as §1

Assay [5] concerns cholangiocarcinoma KKU-100 cells. The assay is described as follows: MTT assay, KKU-100 cells. The format is cell-based, human. Particulars: Homo sapiens, KKU100, read-out: IC50 Values (Mean ± SD; n = 3). As for the experimental part:
as §1

Assay [6] has as its system cholangiocarcinoma KKU-M213B cells. Kind of assay: MTT assay, KKU-M213B cells. It is filed as cell-based, human. Particulars: Homo sapiens, read-out: IC50 Values (Mean ± SD; n = 3). As for the experimental part: as §1

Where two headings read alike, the source gives them in different places.

Turning to `COc1cc(CNC(=O)CCCCC(O)CC(C)C)ccc1O` (stereo not drawn) [Hydroxycapsaicin (2), hydroxycapsaicin], at histone deacetylase, the 50% inhibitory concentration (IC50) was 72 µM.

Take `CCCCCC1CC(CCc2ccc(O)c(OC)c2)=NN1c1ccc([N+](=O)[O-])cc1` (stereo not drawn) [Compound 5j, 2-methoxy-4-(2-(1-(4-nitrophenyl)-5-pentyl-4,5-dihydro-1H-pyrazol-3-yl)ethyl)phe nol]: the “%HDAC Inhibition” value in assay [1] came to 85%. The IC50 in the assay with Vero cells (24 h) came to 41.6 ± 2.99 µM; with Vero cells (48 h), 32.2 ± 1.31 µM; in the assay on Vero cells (72 h) it was 26.1 ± 0.47 µM; in [2] (24 h) it was 26.8 ± 0.62 µM; in assay [2] (48 h) it was 11.6 ± 0.6 µM; in assay [2] (72 h) it was 8.09 ± 0.03 µM. The IC50 worked out at 42.7 ± 2.23 µM in [3] (24 h); 10.2 ± 0.43 µM in assay [3] (48 h); 9.65 ± 0.17 µM in [3] (72 h); 27.9 ± 0.86 µM in assay [4] (24 h); 13.8 ± 0.56 µM in assay [4] (48 h); 11.6 ± 0.44 µM in assay [4] (72 h). Besides, the IC50 in the assay with H-69 cells (24 h) worked out at 44.1 ± 0.89 µM; in the assay with H-69 cells (48 h), 34.6 ± 0.41 µM; in the assay with H-69 cells (72 h), 26.4 ± 0.43 µM; in [5] (24 h) it was 27.2 ± 0.59 µM; in assay [5] (48 h) it was 22.4 ± 0.65 µM; in assay [5] (72 h), 17.45 ± 0.14 µM. Moreover, the results for the 50% inhibitory concentration (IC50) in assay [6] (24 h), in assay [6] (48 h) and in assay [6] (72 h) were 23.9 ± 0.85 µM, 19.3 ± 0.9 µM and 13.8 ± 0.16 µM, respectively.

Consider `CCCCC/C=C/C(=O)CCc1ccc(O)c(OC)c1` [Compound 4, [6]-shogaol], for which, in assay [1], the “%HDAC Inhibition” value stood at 86%. The half-maximal inhibitory concentration (IC50) is 37.6 ± 0.94 µM in the assay with Vero cells (24 h); 36 ± 0.95 µM in the assay with Vero cells (48 h); 23.3 ± 0.24 µM in the assay with Vero cells (72 h); 16.9 ± 0.8 µM in [2] (24 h); 9.26 ± 0.46 µM in assay [2] (48 h); 8.1 ± 0.29 µM in assay [2] (72 h). For the same compound, the IC50 in assay [3] (24 h) came out at 17.3 ± 0.57 µM; in assay [3] (48 h), 12.4 ± 0.15 µM; in [3] (72 h), 12.3 ± 0.13 µM; in assay [4] (24 h), 24.8 ± 0.66 µM; in assay [4] (48 h), 16.54 ± 0.15 µM; in assay [4] (72 h), 13.39 ± 0.07 µM. For the same compound, the half-maximal inhibitory concentration (IC50) in the assay with H-69 cells (24 h) is 38.4 ± 0.84 µM; with H-69 cells (48 h), 32 ± 0.55 µM; in the assay on H-69 cells (72 h) it was 24.78 ± 0.24 µM; in [5] (24 h) it was 27.64 ± 0.26 µM; in assay [5] (48 h), 18.9 ± 0.48 µM; in assay [5] (72 h), 17.04 ± 0.04 µM. Also, the half-maximal inhibitory concentration (IC50) is 17.95 ± 0.05 µM in assay [6] (24 h), 12.9 ± 0.47 µM in assay [6] (48 h), 9.91 ± 0.17 µM in [6] (72 h) and 50 µM at histone deacetylase. In addition, the “selectivity towards HeLa cells than non-cancer cells” value in assay [2] is on record as 3 fold.

With `CCCCC[C@H](O)CC(=O)CCc1ccc(O)c(OC)c1` [[6]-Gingerol (3), [6]-gingerol], the half-maximal inhibitory concentration (IC50) on histone deacetylase is 61 µM.

With `CCCCC/C=C/C(CCc1ccc(O)c(OC)c1)=N\Nc1ccccn1` [Compound 4c, 2-Methoxy-4-((3Z,4E)-3-(2-(pyridin-2-yl)hydrazono)dec-4-en-1-yl)phenol], the “%HDAC Inhibition” value in assay [1] is given as 80%. The IC50 with Vero cells (24 h) was 69.5 ± 3.94 µM; in the assay on Vero cells (48 h), 49.31 ± 0.18 µM; in the assay on Vero cells (72 h), 45.2 ± 0.49 µM; in [2] (24 h), 49.3 ± 1.27 µM; in assay [2] (48 h) it was 33.4 ± 1.09 µM; in assay [2] (72 h), 29.3 ± 0.88 µM. Besides, the half-inhibitory concentration (IC50) in [3] (24 h) was determined as 20.2 ± 0.46 µM; in assay [3] (48 h) it was 18.4 ± 0.32 µM; in assay [3] (72 h), 17.2 ± 0.23 µM; in [4] (24 h) it was 46.4 ± 1.3 µM; in assay [4] (48 h), 39.4 ± 0.68 µM; in assay [4] (72 h), 27.1 ± 0.47 µM. Further, the concentration for half-maximal inhibition (IC50) is 40 ± 1.57 µM in the assay on H-69 cells (24 h); 30.6 ± 0.82 µM in the assay with H-69 cells (48 h); 28.7 ± 0.36 µM in the assay with H-69 cells (72 h); 36.8 ± 0.89 µM in [5] (24 h); 29.7 ± 0.96 µM in assay [5] (48 h); 19.2 ± 0.41 µM in assay [5] (72 h). Also, the half-inhibitory concentration (IC50) in assay [6] (24 h) is 39 ± 0.27 µM; in assay [6] (48 h), 28.98 ± 0.26 µM; in [6] (72 h) it was 25.9 ± 0.71 µM.

On to `CCCCCC1CC(CCc2ccc(O)c(OC)c2)=NN1c1ccc(C(=O)O)cc1` (stereo not drawn) [Compound 5k, 4-(3-(4-hydroxy-3-methoxyphenethyl)-5-pentyl-4,5-dihydro-1H-pyrazol-1-yl)benzo ic acid], for which the “%HDAC Inhibition” value in [1] turned out to be 83%. Also, the IC50 worked out at 143 ± 2.15 µM in the assay on Vero cells (24 h); 128 ± 1.73 µM in the assay on Vero cells (48 h); 116.7 ± 1.13 µM in the assay on Vero cells (72 h); 83.8 ± 1.83 µM in assay [2] (24 h); 56.8 ± 1.24 µM in [2] (48 h); 23.1 ± 0.76 µM in assay [2] (72 h). Also, the IC50 in assay [3] (24 h) came to 94.4 ± 2.7 µM; in [3] (48 h), 39.2 ± 1.06 µM; in [3] (72 h) it was 34.5 ± 0.66 µM; in assay [4] (24 h), 56.6 ± 3.21 µM; in assay [4] (48 h), 50.5 ± 1.64 µM; in assay [4] (72 h) it was 31.8 ± 0.88 µM. For the same compound, the IC50 with H-69 cells (24 h) came to 68.7 ± 1.15 µM; in the assay with H-69 cells (48 h), 52.7 ± 1.73 µM; with H-69 cells (72 h), 47.6 ± 0.73 µM; in [5] (24 h) it was 68.1 ± 1.98 µM; in assay [5] (48 h), 38.9 ± 0.65 µM; in assay [5] (72 h), 26.99 ± 0.08 µM. Moreover, the IC50 in assay [6] (24 h) came to 63.2 ± 2.52 µM; in assay [6] (48 h), 35.7 ± 1.4 µM; in assay [6] (72 h), 29.1 ± 1.17 µM. The “selectivity towards HeLa cells than non-cancer cells” value in assay [2] is “about 5 fold”.
